The values that follow come from patent publication US20200061076A1, “METHODS OF TREATING LEUKODYSTROPHIES” (Ramot at Tel-Aviv University Ltd., priority 2017, published 2020).

The test system of data set [1] is Mut astrocytes. Briefly: Cell survival assay, Crystal violet staining, Mut astrocytes. As to conditions: 24 hours, untreated cells set to 100%. It counts as cell-based, mouse. The method, then:
(§1) Cells were seeded on 96-wells plate at a density of 5000 cells per well. Astrocytes were seeded following coating with 0.001% PDL.

For data set [2], the system named is Mut MEFs. Briefly: JC1 staining of intact and damaged mitochondria (mitochondrial membrane potential). It counts as cell-based, mouse. As to conditions: Mut MEFs. How it is done:
Mut MEFs were treated or not for 6 hours with the indicated concentrations of p8G5 (blue), pre084 (purple), or NE-100 (yellow), washed and stained with Hoechst and JC1 for 30 minutes followed by image acquisition using In-Cell-Analyzer-2000. Shown is the % of red/green JC1 integrated intensity per cell relative to that in untreated WT cells of 2-4 independent experiments.
Following, the cells were washed, stained with Hoechst and JC-1 fluorescent dyes for 30 minutes, and subjected to image acquisition using In-Cell-Analyzer-2000. Shown is cellular content of damaged mitochondria (JC1 green channel, red bars), intact mitochondria (JC1 red channel, green bars) and damaged to intact mitochondria ratio (blue bars). Values of control (vehicle treated) cells was set to 100%.
Mut MEFs were treated with the indicated compounds at 10 μM for 24 hours followed by staining with fluorogenic dyes and image-based single-cell analysis. Shown is average effect on ROS level from at least 3-independent experiments ±SEM. […] Mut MEFs were incubated or not for 24 hours with 10 μM of the indicated compound, washed and stained with Crystal Violet. […] Mut MEFs were incubated or not for 24 hours with 10 μM of the indicated compound, washed and stained with JC1 and Hoechst followed by image-based single-cell analysis. Values of untreated cells were set as 100%. Shown is average of at least 3 independent experiments for each parameter compared to its matching control ±SEM. * p<0.05. Putative targets are indicated.
Mut MEFs were incubated or not for 24 hours with 10 μM of the indicated compounds, washed and stained with Hoechst and JC1 followed by image-based single-cell analysis. […] Mut MEFs were incubated or not with the indicated concentrations of the indicated compounds for 2 hours followed by addition of 50 ng/ml Tunicamycin (Tun) for additional 22 hours, stained with Crystal Violet followed by measurement of absorbance at 570 nm.
MEFs were seeded on 1% gelatin-coated 96-wells plate at a density of 5000 cells per well. 24 hours post-plating the cells were incubated with the tested compounds for additional 24 hours. Several DMSO-treated cells (control) were included in each plate at different locations. Following, the cells were stained by addition of fluorogenic dyes for further 30 minutes incubation at 37° C. […] CellROX was used together with Hoechst and CFSE; JC1 was used together with Hoechst. Cells were washed with Hank's balanced salt solution (HBSS) which was used for images acquisition using IN Cell Analyzer 2000 (GE Healthcare, Pitsburgh, Pa., USA). IN Cell Developer Toolbox 1.9.1 software (GE Healthcare) was used for analysis which included cells segmentation using Hoechst and/or CFSE signals. For analysis of JC1 staining, integrated intensity of green and red emissions were used for detection of damaged and intact mitochondria, respectively.

The target in data set [3] is Sig-1R (Homo sapiens, UniProt Q99720). Kind of data set: Competitive displacement binding assay with [3H]haloperidol (Eurofins). As to conditions: 10 μM compound. How it is done: Following, the direct binding of p8G5 to Sig-1R, was tested in-vitro by Eurofins labs (www(dot)cerep(dot)fr/cerep/users/pages/catalog/Affiche_CondExp_Test(dot)asp?test=889).
Data set [4] has as its system Mut MEFs. Kind of data set: TMRE staining, flow cytometry. Format: cell-based, mouse. Particulars: 1 μM, 6 hours (FIGS. 5A-B). The method, then:
Mut MEFs were treated or untreated with the indicated concentrations of the indicated Sig-1R binders for 6 hours, stained by TMRE for 30 minutes and analyzed by flow cytometry. Shown are flow cytometry histograms and bar graphs representing % mean TMRE fluorescence intensity relative to non-treated WT cells of a representative experiment.
MEFs were seeded at a density of 4×10^4 cells per well in a 24-wells plate. 24 hours post-plating the cells were incubated with the tested compounds for additional 6 hours followed by staining with 200 nM Tetra-Methyl-Rhodamine-Ethyl esterperchlorate (TMRE) (Abcam) for 30 minutes at 37° C. Cells were removed by trypsinyzation, washed and resuspended in PBS. 5-10×10^3 cells were analyzed by Stratedigm S1000EXi cell sorter and FlowJo software (FLOWJO, LLC, Ashland, Oreg., USA).
On the technique in general: Flow cytometry measures light scatter and fluorescence of single cells or particles in a stream.

In data set [5] the test system is Mut MEFs. Briefly: Oxygen consumption (Seahorse XF Cell Mito Stress Test), MEFs. As to conditions: for basal and ATP-linked respiration rate per mitochondrial DNA content: 6 hours (FIGS. 8A-B). Format: cell-based, mouse. How it is done: Mut MEFs were treated or not for 6 hours with the indicated concentrations of the indicated Sig-1R binders. Oxygen consumption was measured in a XF96 Extracellular Flux Analyzer using the Seahorse XF Cell Mito Stress Test Kit. The Basal respiration (FIG. 7A) and ATP-linked respiration (FIG. 7B) data were normalized to biomass as determined by Crystal Violet staining.
Mut MEFs were treated or not for 6 hours with the indicated concentrations of the indicated Sig-1R binders. Oxygen consumption was measured in a XF96 Extracellular Flux Analyzer using the Seahorse XF Cell Mito Stress Test Kit. The Basal respiration (FIG. 8A), ATP-linked respiration (FIG. 8B) and maximal respiration (FIG. 8C) data was normalized to mtDNA content as detailed in FIG. 2.
(§2) The data were normalized to cell number, obtained by Crystal Violet staining, or to mtDNA content.

The test system of data set [6] is Mut primary astrocytes. Kind of data set: Oxygen consumption (OCR), primary astrocytes. It counts as cell-based, mouse. As to conditions: 1 or 10 μm, 6 hours, normalized to cell number (FIGS. 17B-C). The method, then: Shown is average relative quantity (RQ) of 2-6 independent experiments normalized to their untreated controls ±SEM. […] Values of ATP-linked respiration (FIG. 17B) and maximal respiration (FIG. 17C) were analyzed and normalized to cell number.
as §2

Data set [7] relates to Mut astrocytes. Briefly: Survival under Tunicamycin-induced ER stress, Crystal Violet, astrocytes. As to conditions: 20-50 μM, 50 ng/ml Tunicamycin last 22 hours (FIG. 19). It counts as cell-based, mouse. The method, then:
WT and Mut astrocytes were treated or not for 24 hours with 20, 30 or 50 μM of the indicated Sig-1R binders in the presence of 50 ng/ml Tunicamycin (Tun) during the last 22 hours. Following, the cells were washed, fixated and stained with Crystal Violet (CV) followed by measurement of absorbance at 570 nm. Shown is % of CV staining relative to cells not treated with tunicamycin nor Sig-1R binder ±SEM of 3 independent experiments, *p<0.05.
as §1

SMILES strings stand for the structures.

Sequence of Sig-1R (Q99720 whole entry): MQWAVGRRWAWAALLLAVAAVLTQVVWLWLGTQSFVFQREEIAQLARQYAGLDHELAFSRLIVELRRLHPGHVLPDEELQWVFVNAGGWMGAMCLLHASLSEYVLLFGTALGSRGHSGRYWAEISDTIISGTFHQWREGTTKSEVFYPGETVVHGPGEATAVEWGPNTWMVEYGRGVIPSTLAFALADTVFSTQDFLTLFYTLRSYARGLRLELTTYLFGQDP

A word on the inhibition: it is how much of the control response was suppressed. As to `Cc1cccc(OCCCCCN2CCOCC2)c1` [H8 (p8G5), 4-[5-(3-methylphenoxy)pentyl]morpholine], the “Survival (%) ± SEM Mut astrocytes” value in data set [1] (1 μM) amounted to 108 ± 0.6%; in data set [1] (10 μM), 93 ± 2.1%; in data set [1] (30 μM), 92 ± 1.6%. Moreover, the “red/green JC1 signal (mitochondria with high to low membrane potential)” value in data set [2] (1 μM and 10 μM, 6 hours (FIG. 6)) is listed as “increased the ratio between the content of mitochondria with high to low membrane potential”. Further, in data set [2] (10 μM, 24 hours (FIG. 14C)), the “effect on mitochondrial health (JC1, intact and damaged mitochondria)” value is listed as “significant beneficial effect on mitochondrial health”. The same compound registered an inhibition at 10 µM in data set [3] of 92%. In data set [4], the “TMRE staining (mitochondrial membrane potential)” value is “increased TMRE staining to a level above that of untreated WT cells”. In addition, the “maximal respiration rate per mitochondrial content” value in data set [5] (1 μM, 6 hours (FIG. 8C)) is on record as “increased the maximal respiration capacity per mitochondria to the level of untreated WT cells”. In addition, the “basal and ATP-linked respiration rate per mitochondrial DNA content” value in data set [5] (1 μM) is reported as “brought both parameters to WT levels”; in data set [5] it was “statistically significant increase”. In addition, in data set [5] (6 hours, normalized to biomass (FIGS. 7A-B)), the “basal respiration and ATP-linked respiration per cell (OCR)” value is listed as “no effect”. The “ATP-linked and maximal respiration in mutant astrocytes” value in data set [6] is “increased both ATP-linked and maximal respiration”. The “survival rate of Mut astrocytes under ER-stress conditions” value in data set [7] is “increased the survival rate”.
